# In EP0745595A1, “3-(3-Aryloxyphenyl)-1-(substituted methyl)-s-triazine-2,4,6-oxo or thiotrione herbicidal agents” (American Cyanamid Company, priority 1995, dated 1996):
# Legend:
# Assay type in all cases: in vivo
# [1] = system: CYPERUS SEROTINUS, ROTTB.; assay: Preemergence weed control under flooded paddy conditions, CYPSE (Flatsedge); details: preemergence weeds, rated three to four weeks after treatment
# Summary of the method: (§1)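 In undrained pots of silt loam flooded to 1.5-3 cm, compounds are pipetted into the water before emergence at the equivalent of about 0.5, 0.25, 0.125 and 0.063 kg/ha. Plants are scored 0-9 for stand, vigor, malformation, size and chlorosis at test end (3-4 weeks).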
# [2] = system: ECHINOCHLOA CRUS-GALLI, (L) BEAU; assay: Preemergence herbicidal evaluation, ECHCG (Barnyardgrass); details: four to five weeks after treatment
# Summary of the method: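 In this preemergence herbicide test, cups holding seeds of ECHCG sown in potting soil over roughly one inch of soil were treated and then grown under conventional greenhouse care. Tests were ended four to five weeks after treatment, and injury was scored 0-9 from stand, vigor, malformation, size, chlorosis and overall appearance relative to a control.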
# SAGITTARIA PYGMAEA, L. = assay: Preemergence weed control under flooded paddy conditions, SAGPY (Arrowhead (Pygmaea)); details: preemergence weeds, rated three to four weeks after treatment
# Summary of the method: as §1
# […], PRESL. = Preemergence weed control under flooded paddy conditions, MOOVA (Monochoria); details: preemergence weeds, rated three to four weeks after treatment
# Summary of the method: as §1
# [3] = system: AMBROSIA ARTEMISIIFOLIA, L.; assay: Preemergence herbicidal evaluation, AMBEL (Ragweed, Common); details: four to five weeks after treatment
# Summary of the method: (§2)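 Injury scored visually (0–9; stand, vigor, malformation, size, chlorosis) versus untreated control, four to five weeks post-treatment. Application: aqueous acetone spray onto freshly planted soil cups, equivalent to about 0.125 to 0.50 kg/ha, plants then kept under standard greenhouse care.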
# CHENOPODIUM ALBUM, L. [4] = assay: Postemergence herbicidal evaluation, CHEAL (Lambsquarters, Common); details: rated four to five weeks after treatment, averaged
# Summary of the method: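 Postemergence herbicidal activity on Chenopodium album was tested by spraying two-week-old seedlings grown in jiffy flats with compound in acetone/water (50/50) plus 0.5% TWEEN®20, using a 40 psi nozzle. Four to five weeks after treatment, stand, vigor, malformation, size, chlorosis and overall appearance were scored 0-9 relative to controls, with repeat tests averaged.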
# [5] = system: ORYZA SATIVA, L. TEBONNET; assay: Preemergence herbicidal evaluation, ORYSAT (Rice, Tebonnet); details: four to five weeks after treatment
# Summary of the method: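 Preemergence herbicidal activity on Tebonnet rice was assessed using pint cups of seeded potting soil kept under conventional greenhouse care after treatment. Tests ended four to five weeks later. Each cup received a 0-9 rating from visual comparison with a control covering stand, vigor, malformation, size, chlorosis and overall appearance.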
# CASSIA OBTUSIFOLIA, L. = assay: Preemergence herbicidal evaluation, CASOB (Sicklepod); details: four to five weeks after treatment
# Summary of the method: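 Preemergence herbicidal activity against sicklepod was assessed by planting seed mixed with potting soil atop about one inch of soil in pint cups. After treatment the cups were watered and handled per standard greenhouse practice. Tests ended four to five weeks later, with plant stand, vigor, malformation, size, chlorosis and overall appearance scored 0-9 relative to a control.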
# CHENOPODIUM ALBUM, L. [6] = assay: Preemergence herbicidal evaluation, CHEAL (Lambsquarters, Common); details: four to five weeks after treatment
# Summary of the method: as §2
# [7] = system: ORYZA SATIVA, L. TEBONNET; assay: Rice tolerance to post-transplant applications under flooded paddy conditions, ORYSAT (Rice, Tebonnet); details: post-transplant rice, rated three to four weeks after treatment;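 note: applied to flooded soil surface three days after transplanting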
# Summary of the method: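 Greenhouse pots of silt loam, each with two transplanted ten-day-old seedlings, are held under 1.5 to 3 cm of standing water. Three days later the compound is applied to the flooded surface at about 0.5, 0.25, 0.125 or 0.063 kg/ha. Damage is scored visually 0-9 after 3-4 weeks.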
# ZEA MAYS L. = assay: Preemergence herbicidal evaluation, ZEAMX (Corn, Field); details: four to five weeks after treatment
# Summary of the method: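 Preemergence herbicidal activity on field corn: seeds in potting soil were sown atop roughly one inch of soil in separate pint cups, treated, and grown under standard greenhouse care. Four to five weeks post-treatment, stand, vigor, malformation, size, chlorosis and overall appearance were compared with a control and scored 0-9.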
# CYPERUS IRIA = assay: Preemergence weed control under flooded paddy conditions, CYPIR (Rice Flatsedge); details: preemergence weeds, rated three to four weeks after treatment
# Summary of the method: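 This preemergence test mimicked flooded paddy conditions: rice flatsedge propagules were sown in the upper 0.5 cm of silt loam in undrained 32 oz. containers (10.5 cm diameter), with water held 1.5 to 3 cm over the soil. After normal greenhouse care, plants were scored 0-9 for stand, vigor, malformation, size, chlorosis and appearance relative to controls.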
# [8] = system: ABUTILON THEOPHRASTI, MEDIC.; assay: Preemergence herbicidal evaluation, ABUTH (Velvetleaf); details: four to five weeks after treatment
# Summary of the method: as §2
# [9] = system: ABUTILON THEOPHRASTI, MEDIC.; assay: Postemergence herbicidal evaluation, ABUTH (Velvetleaf); details: rated four to five weeks after treatment, averaged
# Summary of the method: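 This postemergence herbicide test used two-week-old velvetleaf seedlings grown in jiffy flats. Each compound was sprayed at 40 psi as a dispersion in 50/50 acetone/water with 0.5% TWEEN®20 surfactant. Plants then received routine greenhouse care. After four to five weeks, injury was scored visually on a 0-9 scale against a control, and replicate tests were averaged.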
# [10] = system: SETARIA VIRIDIS, (L) BEAU; assay: Preemergence herbicidal evaluation, SETVI (Foxtail, Green); details: four to five weeks after treatment
# Excerpt: Results of herbicide evaluation are expressed on a rating scale (0-9). The scale is based upon a visual observation of plant stand, vigor, malformation, size, chlorosis and overall plant appearance as compared with a control.
# The preemergence herbicidal activity of the test compounds of the present invention is exemplified by the following tests in which the seeds of a variety of monocotyledonous and dicotyledonous plants are separately mixed with potting soil and planted on top of approximately one inch of soil in separate pint cups. […] The treated cups are then placed on greenhouse benches, watered and cared for in accordance with conventional greenhouse procedures. From four to five weeks after treatment, the tests are terminated and each cup is examined and rated according to the rating system provided in Example 40.
# The compounds evaluated are reported by compound number given in Example 40.
# [11] = system: GLYCINE MAX(L) MERR. CV. WILLIAMS; assay: Preemergence herbicidal evaluation, GLXMAW (Soybean, Williams); details: four to five weeks after treatment
# Summary of the method: as §2
# [12] = system: TRITICUM AESTIVUM, CV. APOLLO; assay: Preemergence herbicidal evaluation, TRZAWO (Wheat, Winter, CV. APOLLO); details: four to five weeks after treatment
# Summary of the method: as §2
structure (smiles),measurement,setting,value
"CCOC(=O)Cn1c(=O)[nH]c(=O)n(-c2cc(Oc3c(F)cc(C(F)(F)F)cc3Cl)ccc2C#N)c1=O [Compound 10, Ethyl 3-{5-[(2-chloro-α,α,α,6-tetrafluoro-p-tolyl)oxy]-2-cyanophenyl}tetrahydro-2,4,6-trioxo-s-triazine-1(2H)-acetate]",CYPSE herbicidal rating,[1]; Rate 0.063 kg/ha,0.0
same,CYPSE herbicidal rating,[1]; Rate 0.125 kg/ha,0.0
same,CYPSE herbicidal rating,[1]; Rate 0.250 kg/ha,0.0
same,ECHCG rating,[2]; Rate 0.125 kg/ha,0.0
same,ECHCG rating,[2]; Rate 0.250 kg/ha,0.0
same,ECHCG rating,[2]; Rate 0.500 kg/ha,0.0
same,SAGPY herbicidal rating,"SAGITTARIA PYGMAEA, L.; Rate 0.063 kg/ha",0.0
same,SAGPY herbicidal rating,"SAGITTARIA PYGMAEA, L.; Rate 0.125 kg/ha",0.0
same,SAGPY herbicidal rating,"SAGITTARIA PYGMAEA, L.; Rate 0.250 kg/ha",0.0
same,SAGPY herbicidal rating,"SAGITTARIA PYGMAEA, L.; Rate 0.500 kg/ha",0.0
same,MOOVA herbicidal rating,"[…], PRESL.; Rate 0.063 kg/ha",9.0
same,MOOVA herbicidal rating,"[…], PRESL.; Rate 0.125 kg/ha",9.0
same,MOOVA herbicidal rating,"[…], PRESL.; Rate 0.250 kg/ha",9.0
same,MOOVA herbicidal rating,"[…], PRESL.; Rate 0.500 kg/ha",9.0
same,AMBEL rating,[3]; Rate 0.125 kg/ha,0.0
same,AMBEL rating,[3]; Rate 0.250 kg/ha,0.0
same,AMBEL rating,[3]; Rate 0.500 kg/ha,0.0
same,"CHEAL, herbicide rating (0-9)","CHENOPODIUM ALBUM, L. [4]; Rate 0.125 kg/ha",9.0
same,"CHEAL, herbicide rating (0-9)","CHENOPODIUM ALBUM, L. [4]; Rate 0.250 kg/ha",9.0
same,"CHEAL, herbicide rating (0-9)","CHENOPODIUM ALBUM, L. [4]; Rate 0.500 kg/ha",9.0
same,ORYSAT rating,[5]; Rate 0.125 kg/ha,2.0
same,ORYSAT rating,[5]; Rate 0.250 kg/ha,2.0
same,ORYSAT rating,[5]; Rate 0.500 kg/ha,2.0
same,CASOB rating,"CASSIA OBTUSIFOLIA, L.; Rate 0.125 kg/ha",0.0
same,CASOB rating,"CASSIA OBTUSIFOLIA, L.; Rate 0.250 kg/ha",0.0
same,CASOB rating,"CASSIA OBTUSIFOLIA, L.; Rate 0.500 kg/ha",0.0
same,CHEAL rating,"CHENOPODIUM ALBUM, L. [6]; Rate 0.125 kg/ha",9.0
same,CHEAL rating,"CHENOPODIUM ALBUM, L. [6]; Rate 0.250 kg/ha",9.0
same,CHEAL rating,"CHENOPODIUM ALBUM, L. [6]; Rate 0.500 kg/ha",9.0
same,ORYSAT herbicidal rating (rice tolerance),[7]; Rate 0.063 kg/ha,0.0
same,ORYSAT herbicidal rating (rice tolerance),[7]; Rate 0.125 kg/ha,1.0
same,ORYSAT herbicidal rating (rice tolerance),[7]; Rate 0.250 kg/ha,1.0
same,ORYSAT herbicidal rating (rice tolerance),[7]; Rate 0.500 kg/ha,1.0
same,ZEAMX rating,ZEA MAYS L.; Rate 0.125 kg/ha,0.0
same,ZEAMX rating,ZEA MAYS L.; Rate 0.250 kg/ha,0.0
same,ZEAMX rating,ZEA MAYS L.; Rate 0.500 kg/ha,0.0
same,CYPIR herbicidal rating,CYPERUS IRIA; Rate 0.063 kg/ha,9.0
same,CYPIR herbicidal rating,CYPERUS IRIA; Rate 0.125 kg/ha,9.0
same,CYPIR herbicidal rating,CYPERUS IRIA; Rate 0.250 kg/ha,9.0
same,CYPIR herbicidal rating,CYPERUS IRIA; Rate 0.500 kg/ha,9.0
same,ABUTH rating,[8]; Rate 0.125 kg/ha,0.0
same,ABUTH rating,[8]; Rate 0.250 kg/ha,0.0
same,ABUTH rating,[8]; Rate 0.500 kg/ha,0.0
same,"ABUTH, herbicide rating (0-9)",[9]; Rate 0.125 kg/ha,9.0
same,"ABUTH, herbicide rating (0-9)",[9]; Rate 0.250 kg/ha,9.0
same,"ABUTH, herbicide rating (0-9)",[9]; Rate 0.500 kg/ha,9.0
same,SETVI rating,[10]; Rate 0.125 kg/ha,0.0
same,SETVI rating,[10]; Rate 0.250 kg/ha,0.0
same,SETVI rating,[10]; Rate 0.500 kg/ha,0.0
same,GLXMAW rating,[11]; Rate 0.125 kg/ha,0.0
same,GLXMAW rating,[11]; Rate 0.250 kg/ha,0.0
same,GLXMAW rating,[11]; Rate 0.500 kg/ha,0.0
same,TRZAWO rating,[12]; Rate 0.125 kg/ha,0.0
same,TRZAWO rating,[12]; Rate 0.250 kg/ha,0.0
same,TRZAWO rating,[12]; Rate 0.500 kg/ha,0.0
